Test results as given in patent publication US8754075B2, “1,3-oxazines as BACE1 and/or BACE2 inhibitors” (Hoffmann-La Roche Inc., priority 2011, dated 2014).

Key:
[1] = molecular target: BACE2 (Rattus norvegicus (Rat), UniProt Q6IE75); assay: Assay for BACE inhibition by measuring cellular TMEM27 cleavage; format: cell-based; conditions: INS-TMEM27 (INS1e rat cell line, inducible hTMEM27); shed TMEM27 by ELISA
Source text: Assay for BACE Inhibition by Measuring Cellular TMEM27 Cleavage:
The assay uses the principle of inhibition of human TMEM27 cleavage by endogenous cellular BACE2 in the Ins1e rat cell line and shedding from the cell surface into the culture medium, followed by detection in an ELISA assay Inhibition of BACE2 prevents the cleavage and shedding in a dose-dependent manner.
The stable cell line “INS-TMEM27” represents an INS1e-derived cell line with inducible expression (using the TetOn system) of full-length hTMEM27 in a doxycycline-dependent manner. The cells are cultured throughout the experiment in RPMI1640+Glutamax (Invitrogen) Penicillin/Streptomycin, 10% Fetal bovine serum, […], […], 100 micrograms/ml G418 and 100 microgram/ml hygromycin and are grown inadherent culture at 37° C. in a standard CO2 cell culture incubator.
INS-TMEM27 cells are seeded in 96-well plates. After 2 days in culture, BACE2 inhibitor is added in a range of concentrations as required by the assay and after a further two hours, doxycycline is added to a final concentration of 500 ng/ml. The cells are incubated for a further 46 hours and the supernatant harvested for detection of shed TMEM27.
An ELISA assay (using a pair of mouse anti-human-TMEM27 antibodies, raised against the extracellular domain of TMEM27) is used for detection of TMEM27 in the culture medium. An EC50 for BACE2 inhibition is calculated using the ELISA readout for each inhibitor concentration with standard curve-fitting software such as XLFit for the Excel spreadsheet program.

[2] = molecular target: BACE1 (Homo sapiens (Human), UniProt P56817); assay: Cellular Aβ-lowering assay; format: cell-based; conditions: HEK293 cells stably expressing human APP wt (APP695); Aβ40 in supernatant by ELISA after 18-20 hrs
Procedure: Cellular Aβ-Lowering Assay: Human HEK293 cells which are stably transfected with a vector expressing a cDNA of the human APP wt gene (APP695) were used to assess the potency of the compounds in a cellular assay. The cells were seeded in 96-well microtiter plates in cell culture medium (Iscove, plus 10% (v/v) fetal bovine serum, glutamine, penicillin/streptomycin) to about 80% confluence and the compounds were added at a 10× concentration in 1/10 volume of medium without FCS containing 8% DMSO (final concentration of DMSO was kept at 0.8% v/v). After 18-20 hrs incubation at 37° C. and 5% CO2 in a humidified incubator the culture supernatant was harvested for the determination of Aβ40 concentrations. […] After blocking of non-specific binding sites with e.g. 1% BSA and washing, the culture supernatants were added in suitable dilutions together with a horseradish peroxidase-coupled Aβ detection antibody (e.g., antibody 4G8, Senetek, Maryland Heights, Mo.) and incubated for 5 to 7 hrs. Subsequently the wells of the microtiter plate were washed extensively with Tris-buffered saline containing 0.05% Tween 20 and the assay was developed with tetramethylbenzidine/H2O2 in citric acid buffer. After stopping the reaction with one volume […] the reaction was measured in an ELISA reader at 450 nm wavelength. The concentrations of Aβ in the culture supernatants were calculated from a standard curve obtained with known amounts of pure Aβ peptide.

Sequence of BACE1 (P56817 46-501): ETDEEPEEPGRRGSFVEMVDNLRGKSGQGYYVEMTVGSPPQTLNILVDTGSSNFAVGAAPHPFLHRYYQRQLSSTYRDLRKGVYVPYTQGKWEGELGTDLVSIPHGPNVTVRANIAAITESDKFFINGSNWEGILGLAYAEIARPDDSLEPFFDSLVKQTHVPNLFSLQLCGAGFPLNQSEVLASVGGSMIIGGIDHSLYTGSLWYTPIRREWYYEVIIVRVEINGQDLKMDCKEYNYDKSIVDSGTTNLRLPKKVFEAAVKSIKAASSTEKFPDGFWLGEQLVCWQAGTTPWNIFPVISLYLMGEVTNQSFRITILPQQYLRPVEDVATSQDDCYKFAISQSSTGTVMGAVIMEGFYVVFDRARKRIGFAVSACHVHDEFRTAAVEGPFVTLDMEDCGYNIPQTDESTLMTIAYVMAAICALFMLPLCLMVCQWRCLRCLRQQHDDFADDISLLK
Sequence of BACE2 (Q6IE75 63-514): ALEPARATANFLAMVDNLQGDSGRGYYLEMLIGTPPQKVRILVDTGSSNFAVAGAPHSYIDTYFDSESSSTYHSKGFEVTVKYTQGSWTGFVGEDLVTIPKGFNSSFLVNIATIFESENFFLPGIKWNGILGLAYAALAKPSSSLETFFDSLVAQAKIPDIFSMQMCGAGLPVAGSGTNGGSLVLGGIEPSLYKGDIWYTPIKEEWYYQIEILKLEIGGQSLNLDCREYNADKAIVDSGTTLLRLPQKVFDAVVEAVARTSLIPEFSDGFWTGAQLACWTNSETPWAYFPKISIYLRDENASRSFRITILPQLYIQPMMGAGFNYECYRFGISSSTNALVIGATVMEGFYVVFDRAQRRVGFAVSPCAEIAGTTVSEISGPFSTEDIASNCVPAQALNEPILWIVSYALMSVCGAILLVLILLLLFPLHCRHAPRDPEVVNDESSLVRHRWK

C[C@]1(c2cc(NC(=O)c3ncc(Cl)cc3Cl)ccc2F)N=C(N)OC[C@@H]1OCC(F)(F)F [Example 48, 3,5-Dichloro-pyridine-2-carboxylic acid {3-[(4R,5R)-2-amino-4-methyl-5-(2,2,2-trifluoro-ethoxy)-5,6-dihydro-4H-[1,3]oxazin-4-yl]-4-fluoro-phenyl}-amide]
IC50 [1]: 67 nM
IC50 [2]: 3 nM

COc1ccc(C(=O)Nc2ccc(F)c([C@@]3(C)N=C(N)OC[C@@H]3F)c2)nc1 [Example 13, 5-Methoxy-pyridine-2-carboxylic acid [3-((4R,5R)-2-amino-5-fluoro-4-methyl-5,6-dihydro-4H-[1,3]oxazin-4-yl)-4-fluoro-phenyl]-amide]
IC50 [1]: 65 nM
IC50 [2]: 4 nM

Cc1cc(C(=O)Nc2ccc(F)c([C@@]3(C)N=C(N)OC[C@@H]3F)c2)c(C)o1 [Example 18, 2,5-Dimethyl-furan-3-carboxylic acid [3-((4R,5R)-2-amino-5-fluoro-4-methyl-5,6-dihydro-4H-[1,3]oxazin-4-yl)-4-fluoro-phenyl]-amide]
IC50 [1]: 20 nM
IC50 [2]: 8 nM

C[C@]1(F)COC(N)=N[C@]1(C)c1cc(NC(=O)c2ncccc2OCC(F)(F)F)ccc1F [Example 37, 3-(2,2,2-Trifluoro-ethoxy)-pyridine-2-carboxylic acid [3-((4R,5R)-2-amino-5-fluoro-4,5-dimethyl-5,6-dihydro-4H-[1,3]oxazin-4-yl)-4-fluoro-phenyl]-amide]
IC50 [1]: 226 nM
IC50 [2]: 22 nM

C[C@]1(c2cc(NC(=O)c3ncc(C#N)cc3Cl)ccc2F)N=C(N)OC[C@H]1F [Example 35, 3-Chloro-5-cyano-pyridine-2-carboxylic acid [3-((4R,5S)-2-amino-5-fluoro-4-methyl-5,6-dihydro-4H-[1,3]oxazin-4-yl)-4-fluoro-phenyl]-amide]
IC50 [1]: 511 nM
IC50 [2]: 82 nM

C[C@]1(F)COC(N)=N[C@]1(C)c1cc(NC(=O)c2ccc(Cl)cn2)ccc1F [Example 41, 5-Chloro-pyridine-2-carboxylic acid [3-((4R,5R)-2-amino-5-fluoro-4,5-dimethyl-5,6-dihydro-4H-[1,3]oxazin-4-yl)-4-fluoro-phenyl]-amide]
IC50 [1]: 6 nM
IC50 [2]: 3 nM

C[C@]1(c2cc(NC(=O)c3ncc(Cl)cc3Cl)ccc2F)N=C(N)OC[C@@H]1F [Example 2, 3,5-Dichloro-pyridine-2-carboxylic acid [3-((4R,5R)-2-amino-5-fluoro-4-methyl-5,6-dihydro-4H-[1,3]oxazin-4-yl)-4-fluoro-phenyl]-amide]
IC50 [1]: 8 nM
IC50 [2]: 0.6 nM

C[C@]1(c2cc(NC(=O)c3ccc(F)cn3)ccc2F)N=C(N)OC[C@@H]1F [Example 20, 5-Fluoro-pyridine-2-carboxylic acid [3-((4R,5R)-2-amino-5-fluoro-4-methyl-5,6-dihydro-4H-[1,3]oxazin-4-yl)-4-fluoro-phenyl]-amide]
IC50 [1]: 7 nM
IC50 [2]: 10 nM

C[C@]1(F)COC(N)=N[C@]1(C)c1cc(NC(=O)C2CC2(F)F)ccc1F (stereo partly drawn) [Example 44, 2,2-Difluoro-cyclopropanecarboxylic acid [3-((4R,5R)-2-amino-5-fluoro-4,5-dimethyl-5,6-dihydro-4H-[1,3]oxazin-4-yl)-4-fluoro-phenyl]-amide]
IC50 [1]: 140 nM
IC50 [2]: 32 nM

C[C@]1(F)COC(N)=N[C@]1(C)c1cc(NC(=O)c2ncc(Cl)cc2Cl)ccc1F [Example 39, 3,5-Dichloro-pyridine-2-carboxylic acid [3-((4R,5R)-2-amino-5-fluoro-4,5-dimethyl-5,6-dihydro-4H-[1,3]oxazin-4-yl)-4-fluoro-phenyl]-amide]
IC50 [1]: 4 nM
IC50 [2]: 2 nM

C[C@]1(c2cc(NC(=O)c3ccc(C(F)F)cn3)ccc2F)N=C(N)OC[C@@H]1F [Example 11, 5-Difluoromethyl-pyridine-2-carboxylic acid [3-((4R,5R)-2-amino-5-fluoro-4-methyl-5,6-dihydro-4H-[1,3]oxazin-4-yl)-4-fluoro-phenyl]-amide]
IC50 [1]: 1 nM
IC50 [2]: 3 nM

C[C@]1(c2cc(NC(=O)c3ccc(C#CC4CC4)cn3)ccc2F)N=C(N)OC[C@@H]1F [Example 14, 5-Cyclopropylethynyl-pyridine-2-carboxylic acid [3-((4R,5R)-2-amino-5-fluoro-4-methyl-5,6-dihydro-4H-[1,3]oxazin-4-yl)-4-fluoro-phenyl]-amide]
IC50 [1]: 9 nM
IC50 [2]: 4 nM

C[C@]1(c2cc(NC(=O)c3ccc(OCF)cn3)ccc2F)N=C(N)OC[C@@H]1F [Example 5, 5-Fluoromethoxy-pyridine-2-carboxylic acid [3-((4R,5R)-2-amino-5-fluoro-4-methyl-5,6-dihydro-4H-[1,3]oxazin-4-yl)-4-fluoro-phenyl]]
IC50 [1]: 106 nM
IC50 [2]: 1 nM

C[C@]1(c2cc(NC(=O)c3n[nH]cc3Cl)ccc2F)N=C(N)OC[C@@H]1F [Example 28, 4-Chloro-1H-pyrazole-3-carboxylic acid [3-((4R,5R)-2-amino-5-fluoro-4-methyl-5,6-dihydro-4H-[1,3]oxazin-4-yl)-4-fluoro-phenyl]-amide]
IC50 [1]: 35 nM
IC50 [2]: 130 nM

C[C@]1(c2cc(NC(=O)c3ncc(C(F)(F)F)cc3Cl)ccc2F)N=C(N)OC[C@@H]1F [Example 9, 3-Chloro-5-trifluoromethyl-pyridine-2-carboxylic acid [3-((4R,5R)-2-amino-5-fluoro-4-methyl-5,6-dihydro-4H-[1,3]oxazin-4-yl)-4-fluoro-phenyl]-amide]
IC50 [1]: 124 nM
IC50 [2]: 2 nM

C[C@]1(c2cc(NC(=O)c3ncc(C(F)(F)F)cc3Cl)ccc2F)N=C(N)OC[C@H]1F [Example 36, 3-Chloro-5-trifluoromethyl-pyridine-2-carboxylic acid [3-((4R,5S)-2-amino-5-fluoro-4-methyl-5,6-dihydro-4H-[1,3]oxazin-4-yl)-4-fluoro-phenyl]-amide]
IC50 [1]: 4030 nM
IC50 [2]: 140 nM
